How the values were obtained:
[1] = test system: C2C12+EA-NLS/NRS+GR-PL cells; test: EFC mitotic index assay, C2C12+EA-NLS/NRS+GR-PL cells (Stanford GR cells); format: cell-based, mouse; conditions: for Avg luminescence readout / R1 luminescence readout / R3 luminescence readout / Ratio (Avg vs 0 conc): 24 hours, 30 min read
Method: (§1) In all experiments described, 20,000 cells/well were plated in a 96 well Corning clear bottom white plate in a total volume of 100 μL. The cells were treated for 24 hours with 5 μL of either the appropriate vehicle control or varying concentrations of the six compounds listed above. The next day, 100 μL of Tropix/ABI Gal screen cell lysis buffer/substrate mixture (24:1 ratio of component) was added to the cells/media and the plate was read on the Victor II luminescent plate reader at 30, 60 and 120 minutes after the lysis/substrate addition.
(§2) The initial test of the cell cycle arresting compounds was performed on a double stable cell line having both of the constructs expressing the EA-NLS/NRS and GR-PL. (PL is β-galactosidase enzyme donor fragment and EA is the enzyme acceptor fragment available from DiscoveRx, Fremont, CA.). The parental line, C2C12 is derived from mouse muscle cells. In the experiments in which EA-NLS/NRS and GR-PL are expressed in the C2C12 parental cell line, the constructs were generated by subcloning the human GR sequence into a MFG-based retroviral vector that had been molecularly altered in a lab at Stanford. An MFG vector is described in U.S. Pat. No. 6,544,771. The EA-NLS/NRS fragment was subcloned into a wzl-based retroviral vector again molecularly altered in a lab at Stanford. In the experiments performed using a CHO-K1 parental cell line background the EA-NLS/NRS was subcloned into the Kpn I and Xba I sites of pcDNA3.1 Hygro vector from Invitrogen (catalog #V870-20). The plasmid was introduced into the cells via FuGene6 (Roche) transfection reagent. Cells were selected in the presence of 250 μg/mL of Hygromycin and single cell clones isolated that expressed the EA-NLS/NRS. The human GR gene was cloned by PCR and subcloned into the Xho I and Bam HI sites of the DiscoveRx vector-pCMV-myc-PL (C3). The plasmid was introduced into the selected EA-NLS/NRS expressing clone isolated above by FuGene 6 transfection. Another round of screening in the presence of 300-500 μg/mL of G418 was used to select GR-PL transfected clones. Clonal selection was performed to finally identify the clone that was used in these studies. In the studies using the CHO-K1+cyto-EA and cJUN-PL, the same Invitrogen pcDNA3.1 Hygro vector was used to express EA. In this case, the EA fragment was subcloned into the Kpn I/Not I sites of pcDNA3.1 Hygro. The plasmid DNA was introduced as described above using FuGene6 reagent. Cells were selected in the presence of 250 μg/mL of hygromycin and clonal selection was performed. The c-Jun gene was generated by PCR using an existing template copy of the gene and then subcloned into the Xho I/Bam HI sites of pCMV-PL-myc (C3).

[2] = test system: CHO-K1+EA-NLS/NRS+GR-PL cells; test: EFC mitotic index assay, CHO-K1+EA-NLS/NRS+GR-PL cells, antibiotic selected pool (DX M19/GR pool); format: cell-based; conditions: 24 hours, 30 min read
Method: as §1, §2
In the next experiment, an antibiotic selected pool population of CHO-K1 cells that express EA-NLS/NRS and GR-PL were tested with the same six set of cell cycle blocking compounds. […] FIGS. 2a and 2b show the immunofluorescence localization of EA and GR-PL in that the blue DAPI nuclear staining can be seen to be concentrated in the nucleus, while the green fluorescein stain on the antibody (from Abcam PLC) to the glucocorticoid receptor is seen in the cytoplasm. […] Again, six tables are presented one for each of the six drugs tested.
This only occurs with compounds that block the cells in mitosis, allowing EA and ProLabel to complement.

## CC(=O)O[C@H]1C(=O)[C@@]2(C)[C@H]([C@H](OC(=O)c3ccccc3)[C@]3(O)C[C@H](OC(=O)[C@H](O)[C@@H](NC(=O)c4ccccc4)c4ccccc4)C(C)=C1C3(C)C)[C@]1(OC(C)=O)CO[C@@H]1C[C@@H]2O [Taxol, paclitaxel]
[1]; 0.03 μM
  Avg luminescence readout: 3094
  R1 luminescence readout: 2624
  R3 luminescence readout: 3543
  Ratio (Avg vs 0 conc): 1
[1]; 0.1 μM
  Avg luminescence readout: 3684
  R1 luminescence readout: 2602
  R3 luminescence readout: 4340
  Ratio (Avg vs 0 conc): 1
[1]; 0.3 μM
  Avg luminescence readout: 3213
  R1 luminescence readout: 2638
  R3 luminescence readout: 3639
  Ratio (Avg vs 0 conc): 1
[1]; 1 μM
  Avg luminescence readout: 3692
  R1 luminescence readout: 3016
  R3 luminescence readout: 4104
  Ratio (Avg vs 0 conc): 1
[2]; 0.03 μM
  Avg luminescence readout: 7167
  R1 luminescence readout: 7314
  R3 luminescence readout: 6605
  Ratio (Avg vs 0 conc): 1
[2]; 0.1 μM
  Avg luminescence readout: 9961
  R1 luminescence readout: 10680
  R3 luminescence readout: 9258
  Ratio (Avg vs 0 conc): 2
[2]; 0.3 μM
  Avg luminescence readout: 9506
  R1 luminescence readout: 11709
  R3 luminescence readout: 7904
  Ratio (Avg vs 0 conc): 1
[2]; 1 μM
  Avg luminescence readout: 15972
  R1 luminescence readout: 17111
  R3 luminescence readout: 14344
  Ratio (Avg vs 0 conc): 2

## CC[C@]1(O)C[C@@H]2CN(CCc3c([nH]c4ccccc34)[C@@](C(=O)OC)(c3cc4c(cc3OC)N(C)[C@H]3[C@@](O)(C(=O)OC)[C@H](OC(C)=O)[C@]5(CC)C=CCN6CC[C@]43[C@@H]65)C2)C1 [Vinblastine]
[1]
  increase in EFC activity (in words): no increase in EFC activity
[1]; 1.0 μg/mL
  Avg luminescence readout: 10744
  R1 luminescence readout: 10417.0
  R3 luminescence readout: 11042
  Ratio (Avg vs 0 conc): 1
[1]; 3.3 μg/mL
  Avg luminescence readout: 12078
  R1 luminescence readout: 10894.0
  R3 luminescence readout: 13468
  Ratio (Avg vs 0 conc): 1
[1]; 10.0 μg/mL
  Avg luminescence readout: 10751
  R1 luminescence readout: 10269.0
  R3 luminescence readout: 11281
  Ratio (Avg vs 0 conc): 1
[1]; 30.0 μg/mL
  Avg luminescence readout: 10933
  R1 luminescence readout: 10692.0
  R3 luminescence readout: 11196
  Ratio (Avg vs 0 conc): 1
[2]; 1.0 μg/mL
  Avg luminescence readout: 4335
  R1 luminescence readout: 4205
  R3 luminescence readout: 4277
  Ratio (Avg vs 0 conc): 1
[2]; 3.3 μg/mL
  Avg luminescence readout: 4345
  R1 luminescence readout: 4410
  R3 luminescence readout: 4436
  Ratio (Avg vs 0 conc): 1
[2]; 10.0 μg/mL
  Avg luminescence readout: 4078
  R1 luminescence readout: 3907
  R3 luminescence readout: 4201
  Ratio (Avg vs 0 conc): 1
[2]; 30.0 μg/mL
  Avg luminescence readout: 5919
  R1 luminescence readout: 5161
  R3 luminescence readout: 6583
  Ratio (Avg vs 0 conc): 1
